Earlier results in patent US9895453B1, “Shiny ultrasound gel” (priority 2016, dated 2018).

Assays:
Ps. cepacia = conditions: initial inoculum 2.7 × 10^6 per gram product, 0.7% Suttocide A

O=C([O-])CNCO.[Na+] [Suttocide® A, Sodium Hydroxymethylglycinate]
organism growth (count) at 48 hours (Ps. aeruginosa; Ps. aeruginosa, 48 hours, initial inoculum 9.5 × 10^6 per gram product, 0.7% Suttocide A): <10 | organism growth (count) at 7 days (Ps. aeruginosa; Ps. aeruginosa, 7 days, initial inoculum 9.5 × 10^6 per gram product, 0.7% Suttocide A): <10 | organism growth (count) at 28 days (Ps. aeruginosa; Ps. aeruginosa, 28 days, initial inoculum 9.5 × 10^6 per gram product, 0.7% Suttocide A): <10 | kills at a concentration of (Ps. aeruginosa; Pseudomonas aeruginosa, TABLE 1): 0.7% | organism growth (count) at 48 hours (E. Coli; E. Coli, 48 hours, initial inoculum 6.0 × 10^6 per gram product, 0.7% Suttocide A): <10 | organism growth (count) at 7 days (E. Coli; E. Coli, 7 days, initial inoculum 6.0 × 10^6 per gram product, 0.7% Suttocide A): <10 | organism growth (count) at 28 days (E. Coli; E. Coli, 28 days, initial inoculum 6.0 × 10^6 per gram product, 0.7% Suttocide A): <10 | kills at a concentration of (E. Coli; Escheria coli, TABLE 1): 0.7% | organism growth (count) at 48 hours (Staph aureus; Staph aureus, 48 hours, initial inoculum 7.3 × 10^6 per gram product, 0.7% Suttocide A): <10 | organism growth (count) at 7 days (Staph aureus; Staph aureus, 7 days, initial inoculum 7.3 × 10^6 per gram product, 0.7% Suttocide A): <10 | organism growth (count) at 28 days (Staph aureus; Staph aureus, 28 days, initial inoculum 7.3 × 10^6 per gram product, 0.7% Suttocide A): <10 | kills at a concentration of (Staph aureus; Staphylococcus aureus, TABLE 1): 0.7% | organism growth (count) at 48 hours (A. niger; A. niger, 48 hours, initial inoculum 8.0 × 10^6 per gram product, 0.7% Suttocide A): <10 | organism growth (count) at 7 days (A. niger; A. niger, 7 days, initial inoculum 8.0 × 10^6 per gram product, 0.7% Suttocide A): <10 | organism growth (count) at 28 days (A. niger; A. niger, 28 days, initial inoculum 8.0 × 10^6 per gram product, 0.7% Suttocide A): <10 | kills at a concentration of (A. niger; Aspergillus niger (Aspergillus brasiliensis), TABLE 1): 0.7% | organism growth (count) at 48 hours (Ps. cepacia; 48 hours): <10 | organism growth (count) at 7 days (Ps. cepacia; 7 days): <10 | organism growth (count) at 28 days (Ps. cepacia; 28 days): <10 | organism growth (count) at 48 hours (C. ablicans; C. ablicans, 48 hours, initial inoculum 4.3 × 10^6 per gram product, 0.7% Suttocide A): <10 | organism growth (count) at 7 days (C. ablicans; C. ablicans, 7 days, initial inoculum 4.3 × 10^6 per gram product, 0.7% Suttocide A): <10 | organism growth (count) at 28 days (C. ablicans; C. ablicans, 28 days, initial inoculum 4.3 × 10^6 per gram product, 0.7% Suttocide A): <10 | kills at a concentration of (C. ablicans; candida albicans, TABLE 1): 0.7%
